The source of these data is the NIST ThermoML archive (doi:10.1021/je049848j).

± gives the expanded uncertainty stated by the source.

The nature of data set [1]: refractive index (Na D-line) (dimensionless). The following applies: 293 K; 101.33 kPa; Liquid; Standard Abbe refractometry.
The conditions of data set [2]: Liquid; for mass density: 293 K, 101.33 kPa, Vibrating tube method; for Normal boiling temperature: Fischer boiling apparatus.

Turning to `CCCCCO` [pentan-1-ol], in data set [1], the refractive index was determined as 1.4104 ± 0.0011. In data set [2], the mass density is listed as 814 ± 0.5 kg/m3 and the Normal boiling temperature came to 138.00 ± 0.2 °C.

As to `CC(=O)OC1CCCCC1` [cyclohexyl ethanoate], the refractive index in data set [1] was 1.4398 ± 0.0011. In data set [2], the mass density is 969.2 ± 0.9 kg/m3 and the Normal boiling temperature worked out at 172.60 ± 0.2 °C.

Take `CC(=O)O` [acetic acid]: the refractive index in data set [1] came to 1.372 ± 0.0011. In data set [2], the mass density stood at 1049.5 ± 0.5 kg/m3 and the Normal boiling temperature came to 117.70 ± 0.2 °C.

As to `CCC(=O)O` [propanoic acid], the refractive index in data set [1] was found to be 1.3811 ± 0.0011. Also, in data set [2], the mass density is recorded as 992.5 ± 0.5 kg/m3 and the Normal boiling temperature was found to be 140.90 ± 0.2 °C.

In the case of `Cc1ccccc1` [toluene], in data set [1], the refractive index was determined as 1.496 ± 0.0011. For the same compound, in data set [2], the mass density is given as 867.3 ± 0.5 kg/m3 and the Normal boiling temperature came out at 110.30 ± 0.2 °C.

In general, refractive index refers to the speed of light in vacuum divided by its phase velocity in the sample. For orientation: mass density means mass per unit of volume.
